# Measured values taken from ChEMBL document CHEMBL1134446, “Polyamine analogue antidiarrheals: a structure-activity study” (J Med Chem, 2001).
# Tests used:
# [1] = The acute toxicity was determined in female CD1 mice after (ip) administration; format: functional; details: Mus musculus
# Canis familiaris [2] = test: MESPM/MEHSPH Distribution in liver was determined after DESPM dosing of 4 mg/kg/day for 13 days in dog(cu dose-52.4) and sacrificed at 10 days PLD(cu dose-52 mg/kg); format: ADME, organism-based, Canis lupus familiaris; details: in vivo, 240 h
# Canis familiaris [3] = test: putrescine Distribution in kidney was determined after DESPM dosing of 4.0 mg/kg/day for 13 days in dog and sacrificed at 10 days PLD(cu dose-52 mg/kg); format: ADME, organism-based, Canis lupus familiaris; details: in vivo, 240 h
# Rattus norvegicus = test: Weight loss of rat over the 6-h experimental period when a dose of 0 mg/kg (0 administered; format: functional
# Canis familiaris [4] = test: Spermine Distribution in kidney was determined after DESPM dosing of 8.0 mg/kg/day for 4.5 days in dog(cu dose-52.4) and sacrificed at 75 days PLD(cu dose-36 mg/kg); format: ADME, organism-based, Canis lupus familiaris; details: in vivo, 1800 h
# Canis familiaris [5] = test: Spermidine Distribution in liver was determined after DESPM dosing of 6.0 mg/kg/day for 4.5 days in dog(cu dose-52.4) and sacrificed at 10 days PLD(cu dose-27 mg/kg); format: ADME, organism-based, Canis lupus familiaris; details: in vivo, 240 h
# Canis familiaris [6] = test: MESPM/MEHSPH Distribution in kidney was determined after DESPM dosing of 6.0 mg/kg/day for 4.5 days in dog(cu dose-52.4) and sacrificed at 10 days PLD(cu dose-27 mg/kg); format: ADME, organism-based, Canis lupus familiaris; details: in vivo, 240 h
# Canis familiaris [7] = test: Spermine Distribution in liver was determined after DESPM dosing of 1.87 mg/kg/day for 28 days in dog(cu dose-52.4) and sacrificed at 75 days PLD(cu dose-52.4 mg/kg); format: ADME, organism-based, Canis lupus familiaris; details: in vivo, 1800 h
# Canis familiaris [8] = test: putrescine Distribution in kidney was determined after DESPM dosing of 8.0 mg/kg/day for 4.5 days in dog and sacrificed at 10 days PLD(cu dose-36 mg/kg); format: ADME, organism-based, Canis lupus familiaris; details: in vivo, 240 h
# Canis familiaris [9] = test: MESPM/MEHSPH Distribution in liver was determined after DESPM dosing of 6.0 mg/kg/day for 4.5 days in dog(cu dose-52.4) and sacrificed at 75 days PLD(cu dose-27 mg/kg); format: ADME, organism-based, Canis lupus familiaris; details: in vivo, 1800 h
# Canis familiaris [10] = test: MESPM/MEHSPH Distribution in liver was determined after DESPM dosing of 4 mg/kg/day for 13 days in dog(cu dose-52.4) and sacrificed at 75 days PLD(cu dose-52 mg/kg); format: ADME, organism-based, Canis lupus familiaris; details: in vivo, 1800 h
# Canis familiaris [11] = test: Spermine Distribution in kidney was determined after DESPM dosing of 1.87 mg/kg/day for 28 days in dog(cu dose-52.4) and sacrificed at 10 days PLD(cu dose-52.4 mg/kg); format: ADME, organism-based, Canis lupus familiaris; details: in vivo, 240 h
# Canis familiaris [12] = test: Spermine Distribution in kidney was determined after DESPM dosing of 4 mg/kg/day for 13 days in dog(cu dose-52.4) and sacrificed at 10 days PLD(cu dose-52 mg/kg); format: ADME, organism-based, Canis lupus familiaris; details: in vivo, 240 h
# Canis familiaris [13] = test: Spermine Distribution in liver was determined after DESPM dosing of 1.87 mg/kg/day for 28 days in dog(cu dose-52.4) and sacrificed at 10 days PLD(cu dose-52.4 mg/kg); format: ADME, organism-based, Canis lupus familiaris; details: in vivo, 240 h
# Canis familiaris [14] = test: Spermidine Distribution in kidney was determined after DESPM dosing of 8.0 mg/kg/day for 4.5 days in dog(cu dose-52.4) and sacrificed at 75 days PLD(cu dose-36 mg/kg); format: ADME, organism-based, Canis lupus familiaris; details: in vivo, 1800 h
# Canis familiaris [15] = test: Spermine Distribution in liver was determined after DESPM dosing of 4 mg/kg/day for 13 days in dog(cu dose-52.4) and sacrificed at 75 days PLD(cu dose-52 mg/kg); format: ADME, organism-based, Canis lupus familiaris; details: in vivo, 1800 h
# Canis familiaris [16] = test: Spermidine Distribution in kidney was determined after DESPM dosing of 1.87 mg/kg/day for 28 days in dog(cu dose-52.4) and sacrificed at 75 days PLD(cu dose-52.4 mg/kg); format: ADME, organism-based, Canis lupus familiaris; details: in vivo, 1800 h
# [17] = The chronic toxicity was determined in female CD1 mice after (ip) administration; format: functional; details: Mus musculus
# Canis familiaris [18] = test: putrescine Distribution in liver was determined after DESPM dosing of 8.0 mg/kg/day for 4.5 days in dog(cu dose-52.4) and sacrificed at 10 days PLD(cu dose-36 mg/kg); format: ADME, organism-based, Canis lupus familiaris; details: in vivo, 240 h
# Canis familiaris [19] = test: Spermidine Distribution in liver was determined after DESPM dosing of 1.87 mg/kg/day for 28 days in dog(cu dose-52.4) and sacrificed at 75 days PLD(cu dose-52.4 mg/kg); format: ADME, organism-based, Canis lupus familiaris; details: in vivo, 1800 h
# Canis familiaris [20] = test: MESPM/MEHSPH Distribution in kidney was determined after DESPM dosing of 4 mg/kg/day for 13 days in dog(cu dose-52.4) and sacrificed at 75 days PLD(cu dose-52 mg/kg); format: ADME, organism-based, Canis lupus familiaris; details: in vivo, 1800 h
# Canis familiaris [21] = test: Distribution in kidney was determined after DESPM dosing of 1.87 mg/kg/day for 28 days in dog(cu dose-52.4) and sacrificed at 75 days PLD(cu dose-52.4 mg/kg); format: ADME, organism-based, Canis lupus familiaris; details: in vivo, 1800 h
# Canis familiaris [22] = test: Distribution in liver was determined after DESPM dosing of 4 mg/kg/day for 13 days in dog(cu dose-52.4) and sacrificed at 10 days PLD(cu dose-52 mg/kg); format: ADME, organism-based, Canis lupus familiaris; details: in vivo, 240 h
# Canis familiaris [23] = test: Distribution in kidney was determined after DESPM dosing of 6.0 mg/kg/day for 4.5 days in dog(cu dose-52.4) and sacrificed at 75 days PLD(cu dose-27 mg/kg); format: ADME, organism-based, Canis lupus familiaris; details: in vivo, 1800 h
# Canis familiaris [24] = test: Distribution in liver was determined after DESPM dosing of 1.87 mg/kg/day for 28 days in dog(cu dose-52.4) and sacrificed at 10 days PLD(cu dose-52.4 mg/kg); format: ADME, organism-based, Canis lupus familiaris; details: in vivo, 240 h
# Canis familiaris [25] = test: Distribution in kidney was determined after DESPM dosing of 8.0 mg/kg/day for 4.5 days in dog(cu dose-52.4) and sacrificed at 10 days PLD(cu dose-36 mg/kg); format: ADME, organism-based, Canis lupus familiaris; details: in vivo, 240 h
# Canis familiaris [26] = test: Distribution in kidney was determined after DESPM dosing of 6.0 mg/kg/day for 4.5 days in dog(cu dose-52.4) and sacrificed at 10 days PLD(cu dose-27 mg/kg); format: ADME, organism-based, Canis lupus familiaris; details: in vivo, 240 h
# Canis familiaris [27] = test: Distribution in kidney was determined after DESPM dosing of 1.87 mg/kg/day for 28 days in dog(cu dose-52.4) and sacrificed at 10 days PLD(cu dose-52.4 mg/kg); format: ADME, organism-based, Canis lupus familiaris; details: in vivo, 240 h
# Canis familiaris [28] = test: Spermidine Distribution in kidney was determined after DEHSPM dosing of 2.0 mg/kg/day […] in dog(cu dose-52.4) and sacrificed at 10 days PLD(cu dose-22 mg/kg); format: ADME, organism-based, Canis lupus familiaris; details: in vivo, 240 h
# Canis familiaris [29] = test: Distribution in liver was determined after DEHSPM dosing of 2.0 mg/kg/day for 29 days in dog(cu dose-52.4) and sacrificed at 10 days PLD(cu dose-58 mg/kg); format: ADME, organism-based, Canis lupus familiaris; details: in vivo, 240 h
# Canis familiaris [30] = test: MESPM/MEHSPH Distribution in kidney was determined after DEHSPM dosing of 2.0 mg/kg/day for 29 days in dog(cu dose-52.4) and sacrificed at 10 days PLD(cu dose-58 mg/kg); format: ADME, organism-based, Canis lupus familiaris; details: in vivo, 240 h
# Canis familiaris [31] = test: HSPM Distribution in kidney was determined after DEHSPM dosing of 2.0 mg/kg/day for 29 days in dog(cu dose-52.4) and sacrificed at 10 days PLD(cu dose-58 mg/kg); format: ADME, organism-based, Canis lupus familiaris; details: in vivo, 240 h
# Canis familiaris [32] = test: Distribution in liver was determined after DESPM dosing of 4 mg/kg/day for 13 days in dog(cu dose-52.4) and sacrificed at 75 days PLD(cu dose-52 mg/kg); format: ADME, organism-based, Canis lupus familiaris; details: in vivo, 1800 h
compound,measurement,setting,value
CCNCCCNCCCCNCCCNCC [BIS(ETHYL)SPERMINE],LD50,[1],400 mg/kg
same,Wet weight of tissue,Canis familiaris [2],34 nM/g
same,Wet weight of tissue,Canis familiaris [3],12 nM/g
same,Weight loss,Rattus norvegicus,11.9 g
same,Wet weight of tissue,Canis familiaris [4],624 nM/g
same,Wet weight of tissue,Canis familiaris [5],181 nM/g
same,Wet weight of tissue,Canis familiaris [6],10 nM/g
same,Wet weight of tissue,Canis familiaris [7],649 nM/g
same,Wet weight of tissue,Canis familiaris [8],20 nM/g
same,Wet weight of tissue,Canis familiaris [9],1 nM/g
same,Wet weight of tissue,Canis familiaris [10],0 nM/g
same,Wet weight of tissue,Canis familiaris [11],998 nM/g
same,Wet weight of tissue,Canis familiaris [12],277 nM/g
same,Wet weight of tissue,Canis familiaris [13],850 nM/g
same,Wet weight of tissue,Canis familiaris [14],80 nM/g
same,Wet weight of tissue,Canis familiaris [15],886 nM/g
same,Wet weight of tissue,Canis familiaris [16],87 nM/g
same,LD50,[17],80 mg/kg
same,Wet weight of tissue,Canis familiaris [18],109 nM/g
same,Wet weight of tissue,Canis familiaris [19],198 nM/g
same,Wet weight of tissue,Canis familiaris [20],0 nM/g
CCNCCCCNCCCCNCCCCNCC [DIETHYLHOMOSPERMINE],Wet weight of tissue,Canis familiaris [21],0 nM/g
same,LD50,[1],300 mg/kg
same,Wet weight of tissue,Canis familiaris [22],36 nM/g
same,Wet weight of tissue,Canis familiaris [23],0 nM/g
same,Wet weight of tissue,Canis familiaris [24],18 nM/g
same,Wet weight of tissue,Canis familiaris [25],48 nM/g
same,Wet weight of tissue,Canis familiaris [26],44 nM/g
same,LD50,[17],38 mg/kg
same,Wet weight of tissue,Canis familiaris [27],50 nM/g
same,Wet weight of tissue,Canis familiaris [28],68 nM/g
same,Wet weight of tissue,Canis familiaris [29],80 nM/g
same,Wet weight of tissue,Canis familiaris [30],78 nM/g
same,Wet weight of tissue,Canis familiaris [31],269 nM/g
same,Wet weight of tissue,Canis familiaris [32],0 nM/g
